The values below come from the NIST ThermoML archive (doi:10.1016/j.tca.2018.01.022).

± gives the expanded uncertainty stated by the source.

What is called mass density is the mass of a sample divided by its volume.

The conditions of this series: 298 K; 101.33 kPa; Crystal; Buoyancy - hydrostatic balance.

`[Al]` [aluminum]: the mass density is 2656 ± 310 kg/m3.
The same measure for `[Mo]` [molybdenum]: 9999 ± 600 kg/m3.
